# Laboratory results taken from ChEMBL document CHEMBL3228019, “Aminoglycoside antibiotics. 2. N,N-Dialkylkanamycins” (1979).
# Legend:
# Type in all cases: functional
# Staphylococcus aureus [1] = experiment: Antibacterial activity against Staphylococcus aureus 9537 assessed as growth inhibition measured after overnight incubation by two-fold broth dilution method
# Staphylococcus aureus [2] = experiment: Antibacterial activity against Staphylococcus aureus 20240 expressing aminoglycoside-3'-phosphotransferase-4 assessed as growth inhibition measured after overnight incubation by two-fold broth dilution method
# Escherichia coli [3] = experiment: Antibacterial activity against Escherichia coli 9632 assessed as growth inhibition measured after overnight incubation by two-fold broth dilution method
# Escherichia coli [4] = experiment: Antibacterial activity against Escherichia coli 20665 expressing aminoglycoside-3'-phosphotransferase-1 assessed as growth inhibition measured after overnight incubation by two-fold broth dilution method
# Escherichia coli [5] = experiment: Antibacterial activity against Escherichia coli 20732 expressing aminoglycoside-2''-nucleotidyltransferase assessed as growth inhibition measured after overnight incubation by two-fold broth dilution method
# Escherichia coli [6] = experiment: Antibacterial activity against Escherichia coli 21218 expressing aminoglycoside-6'-acetyltransferase assessed as growth inhibition measured after overnight incubation by two-fold broth dilution method
# Enterobacter cloacae [7] = experiment: Antibacterial activity against Enterobacter cloacae 9656 assessed as growth inhibition measured after overnight incubation by two-fold broth dilution method
# Enterobacter cloacae [8] = experiment: Antibacterial activity against Enterobacter cloacae 20364 expressing aminoglycoside-3'-phosphotransferase-1 assessed as growth inhibition measured after overnight incubation by two-fold broth dilution method
# Klebsiella pneumoniae = experiment: Antibacterial activity against Klebsiella pneumoniae 9977 assessed as growth inhibition measured after overnight incubation by two-fold broth dilution method
# Providencia rettgeri [9] = experiment: Antibacterial activity against Proteus rettgeri 9637 assessed as growth inhibition measured after overnight incubation by two-fold broth dilution method
# Providencia rettgeri [10] = experiment: Antibacterial activity against Proteus rettgeri 21207 expressing aminoglycoside-2'-acetyltransferase assessed as growth inhibition measured after overnight incubation by two-fold broth dilution method
# Pseudomonas aeruginosa [11] = experiment: Antibacterial activity against Pseudomonas aeruginosa 9843a assessed as growth inhibition measured after overnight incubation by two-fold broth dilution method
# Pseudomonas aeruginosa [12] = experiment: Antibacterial activity against Pseudomonas aeruginosa 20610 expressing aminoglycoside-3'-phosphotransferase and aminoglycoside-3-acetyltransferase-1 assessed as growth inhibition measured after overnight incubation by two-fold broth dilution method
# Pseudomonas aeruginosa [13] = experiment: Antibacterial activity against Pseudomonas aeruginosa 20653 expressing aminoglycoside-3'-phosphotransferase-4 assessed as growth inhibition measured after overnight incubation by two-fold broth dilution method
# Pseudomonas aeruginosa [14] = experiment: Antibacterial activity against Pseudomonas aeruginosa 20897 expressing aminoglycoside-3'-phosphotransferase-1 and aminoglycoside-6'-acetyltransferase assessed as growth inhibition measured after overnight incubation by two-fold broth dilution method
# Pseudomonas aeruginosa [15] = experiment: Antibacterial activity against kanamycin A/B impermeable Pseudomonas aeruginosa 21509 assessed as growth inhibition measured after overnight incubation by two-fold broth dilution method
Compound,MIC (Staphylococcus aureus [1]),MIC (Staphylococcus aureus [2]),MIC (Escherichia coli [3]),MIC (Escherichia coli [4]),MIC (Escherichia coli [5]),MIC (Escherichia coli [6]),MIC (Enterobacter cloacae [7]),MIC (Enterobacter cloacae [8]),MIC (Klebsiella pneumoniae),MIC (Providencia rettgeri [9]),MIC (Providencia rettgeri [10]),MIC (Pseudomonas aeruginosa [11]),MIC (Pseudomonas aeruginosa [12]),MIC (Pseudomonas aeruginosa [13]),MIC (Pseudomonas aeruginosa [14]),MIC (Pseudomonas aeruginosa [15])
NC[C@@H]1O[C@@H](O[C@H]2[C@H](O)[C@@H](O[C@H]3O[C@H](CO)[C@@H](O)[C@H](N)[C@H]3O)[C@H](N)C[C@@H]2N)[C@@H](O)[C@H](O)[C@H]1O [KANAMYCIN A],1 µg/mL,> 125 µg/mL,4 µg/mL,> 125 µg/mL,125 µg/mL,> 125 µg/mL,4 µg/mL,> 125 µg/mL,0.25 µg/mL,0.5 µg/mL,8 µg/mL,63 µg/mL,32 µg/mL,> 125 µg/mL,> 125 µg/mL,> 125 µg/mL
CCNC[C@H]1O[C@H](O[C@H]2[C@H](O)[C@@H](O[C@H]3O[C@H](CO)[C@@H](O)[C@H](NCC)[C@H]3O)[C@H](N)C[C@@H]2N)[C@H](O)[C@@H](O)[C@@H]1O,63 µg/mL,> 125 µg/mL,> 125 µg/mL,> 125 µg/mL,> 125 µg/mL,> 125 µg/mL,125 µg/mL,> 125 µg/mL,> 125 µg/mL,32 µg/mL,4 µg/mL,> 125 µg/mL,> 125 µg/mL,> 125 µg/mL,> 125 µg/mL,> 125 µg/mL
NC[C@H]1O[C@H](O[C@H]2[C@H](O)[C@@H](O[C@H]3O[C@H](CO)[C@@H](O)[C@H](N)[C@H]3O)[C@H](N)C[C@@H]2N)[C@H](N)[C@@H](O)[C@@H]1O [BEKANAMYCIN],0.5 µg/mL,> 125 µg/mL,2 µg/mL,> 125 µg/mL,32 µg/mL,32 µg/mL,2 µg/mL,> 125 µg/mL,0.25 µg/mL,0.5 µg/mL,32 µg/mL,63 µg/mL,32 µg/mL,> 125 µg/mL,> 125 µg/mL,> 125 µg/mL

# The remaining lines, values ahead:
MIC (Staphylococcus aureus [1]),MIC (Staphylococcus aureus [2]),MIC (Escherichia coli [3]),MIC (Escherichia coli [4]),MIC (Escherichia coli [5]),MIC (Escherichia coli [6]),MIC (Enterobacter cloacae [7]),MIC (Enterobacter cloacae [8]),MIC (Klebsiella pneumoniae),MIC (Providencia rettgeri [9]),MIC (Providencia rettgeri [10]),MIC (Pseudomonas aeruginosa [11]),MIC (Pseudomonas aeruginosa [12]),MIC (Pseudomonas aeruginosa [13]),MIC (Pseudomonas aeruginosa [14]),MIC (Pseudomonas aeruginosa [15]),Compound
> 125 µg/mL,> 125 µg/mL,> 125 µg/mL,> 125 µg/mL,> 125 µg/mL,125 µg/mL,> 125 µg/mL,> 125 µg/mL,> 125 µg/mL,> 125 µg/mL,> 125 µg/mL,> 125 µg/mL,> 125 µg/mL,> 125 µg/mL,> 125 µg/mL,> 125 µg/mL,CNC[C@H]1O[C@H](O[C@H]2[C@H](O)[C@@H](O[C@H]3O[C@H](CO)[C@@H](O)[C@H](NC)[C@H]3O)[C@H](N)C[C@@H]2N)[C@H](O)[C@@H](O)[C@@H]1O
4 µg/mL,8 µg/mL,16 µg/mL,63 µg/mL,63 µg/mL,63 µg/mL,8 µg/mL,63 µg/mL,4 µg/mL,16 µg/mL,63 µg/mL,8 µg/mL,8 µg/mL,8 µg/mL,8 µg/mL,16 µg/mL,CNC[C@H]1O[C@H](O[C@H]2[C@H](O)[C@@H](O[C@H]3O[C@H](CO)[C@@H](O)[C@H](NC)[C@H]3O)[C@H](N)C[C@@H]2N)[C@H](N)[C@@H](O)[C@@H]1O
32 µg/mL,32 µg/mL,32 µg/mL,63 µg/mL,125 µg/mL,63 µg/mL,63 µg/mL,125 µg/mL,63 µg/mL,63 µg/mL,125 µg/mL,32 µg/mL,32 µg/mL,32 µg/mL,32 µg/mL,32 µg/mL,N[C@@H]1C[C@H](N)[C@@H](O[C@H]2O[C@@H]3CNC(=O)O[C@H]3[C@H](O)[C@H]2O)[C@H](O)[C@H]1O[C@H]1O[C@H](CO)[C@@H](O)[C@@H]2NC(=O)O[C@@H]12
